Assay [1] relates to GFRα1/RET-expressing cells. The assay can be described thus: Reporter-gene luciferase activity assay, dose-response (FIG. 5). The assay is classed as cell-based. Particulars: 1-50 μM, 24 h. The method, then: (§1) Generation of stable cell lines. MG87RET murine fibroblast were plated on […] dishes and transfected with 4 μg of G4-Luc, Gal4-Elk (Baloh et al., 2000) and GFRα1 expressing plasmid (“αLUC” cells) or empty vector (“NOα” cells) containing neomycin-resistance gene in ratio 4:1:1 using Lipofectamine 2000 (Invitrogen) for DNA delivery as described by manufacturer. The following day, cells were trypsinized and plated in low density on 10-cm tissue culture dishes. Stable transformants were selected in the presence of 500-750 μg/ml geneticin (Invitrogen). Established cell lines were maintained in DMEM, 10% fetal bovine serum (FBS), 100 μg/ml Normocin (Invivogene), 2 μg/ml of puromycin, 500 μg/ml of geneticin, 15 mM HEPES, pH 7.2. Pathdetect Elk-1 system and human GFRα1-expressing plasmid (“Strat-Luc” cells) or empty vector (control cell line “NOStratis”) cells were selected and maintained in the DMEM, 10% FBS, 100 μg/ml Normocin (Invivogene), 2 μg/ml of puromycin, 500 μg/ml of G418, 2 μg/ml of blasticidin S, 15 mM HEPES, pH 7.2.
(§2) Cells were plated on 96-well plates (or 384-well) in cell density 20 000 (or 5 000 for 384-well format) cells per well in DMEM, 10% FBS, 100 μg/ml Normocin, 2 μg/ml puromycin, 500 μg/ml of G418, 15 mM HEPES, pH 7.2 one day before assay. The following day, the compounds were added to a final concentration of 1-50 μM. Structures of the compounds are shown in the description of FIG. 5, above. Cells were allowed to produce luciferase for 24 h, then lysed in 20 μl of 1×Cell culture lysis reagent (Promega) and freeze-thawed once to ensure complete lysis. Then 5 μl of the lysate was mixed (on ice) with 20 μl of luciferase assay substrate (Promega) in a well of black Isoplate (PerkinElmer). Luminescence was counted on MicroBeta 2 counter (PerkinElmer) twice. Data are presented as fold induction, where the corresponding concentration of DMSO was used as a reference.

In assay [2] the test system is RET-expressing reporter cell line (RET alone). The assay is described as above. In kind it is cell-based. The settings on record: cells expressing RET alone; 1-50 μM, 24 h. The method, then: as §1, §2
Assay [3] has as its target T1, GFRα1/RET (Homo sapiens, UniProt P07949+P56159).
T1 construct: Full-length human GFRα1 cDNA (Sidorova et al., unpublished) subcloned in pcDNA6; expressed in transfected cells; host or cells: MG87RET murine fibroblasts transiently transfected with GFRα1
The assay can be described thus: RET phosphorylation by BT compounds, IP and Western blotting (FIG. 6A). The settings on record: 100 μM, 15 min; MG87 RET fibroblasts transfected with GFRα1. The assay is classed as cell-based. As for the experimental part: (§3) MG87RET cells were plated on 35 mm tissue culture dishes the day before the experiment. Cells were transfected with GFRα1, GFRα3 or with an vector encoding for GFP. On the day of the experiment cells were starved for 4 hours in serum-free DMEM and stimulated with the investigated compounds (structures shown in the description of FIG. 6, above) at 100 μM concentration or with 100 ng/ml of GDNF or ARTN (positive control) for 15 min. Then cells were washed once with ice-cold PBS containing 1 mM Na3VO4 and lysed on ice in 1 ml per well of RIPA-modified buffer (50 mM Tris-HCl, pH 7.4, 150 mM NaCl, 1 mM EDTA, 1% NP-40, 1% TX-100, 10% glycerol, EDTA-free protease inhibitor cocktail (Roche), 1 mM Na3VO4, 2.5 mg/ml of sodium deoxycholate, 1 mM PMSF. Ret was immunoprecipitated by anti-RET C-20 antibodies (Santa-Cruz Biotechnology, Inc.). Precipitated proteins were resolved on 7.5% SDS-PAGE and then transferred onto a nitrocellulose membrane. Membrane was blocked for 15 min at room temperature by 10% nonfat dry milk in TBS-T and probed with anti-phosphotyrosine antibodies (clone 4G10, Upstate Biotechnology) diluted 1:1000 in TBS-T containing 3% nonfat dry milk for 2 hours at room temperature. The membranes were washed 3 times for 5 min in TBS-T and incubated in the 1:3000 solution of secondary anti-mouse antibodies conjugated with HRP (DAKO) diluted in TBS-T containing 3% nonfat dry milk for 45 min at room temperature. Membranes were washed with TBS-T for 5×10 min. Stained bands were visualized with ECL reagent (Pierce) using LAS3000 imaging program. To confirm equal loading of the proteins, membranes were probed with anti-RET C-20 antibodies (1:500, Santa-Cruz Biotechnology, inc.) after stripping. We used secondary anti-goat antibodies conjugated with HRP (1:1500, DAKO) to detect C-20.
For orientation: In western blotting, separated proteins are transferred to a membrane and probed.

The target in assay [4] is T2, GFRα3/RET (Homo sapiens, UniProt O60609+P07949).
T2 construct: Full-length human GFRα3 cDNA (Wang et al., 2006); expressed in transfected cells; host or cells: MG87RET murine fibroblasts transiently transfected with GFRα3
T2 sequence (O60609 32-374 limits assumed): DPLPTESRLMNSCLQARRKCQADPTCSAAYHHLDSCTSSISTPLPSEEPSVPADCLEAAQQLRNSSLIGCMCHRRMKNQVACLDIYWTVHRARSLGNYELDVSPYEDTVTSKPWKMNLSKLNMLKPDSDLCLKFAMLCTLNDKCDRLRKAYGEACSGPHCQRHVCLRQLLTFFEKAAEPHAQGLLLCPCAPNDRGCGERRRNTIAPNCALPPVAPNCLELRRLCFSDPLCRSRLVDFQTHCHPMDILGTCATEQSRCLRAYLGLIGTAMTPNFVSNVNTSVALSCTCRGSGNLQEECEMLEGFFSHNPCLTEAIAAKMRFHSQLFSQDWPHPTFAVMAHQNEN
T2 sequence (P07949 29-1114): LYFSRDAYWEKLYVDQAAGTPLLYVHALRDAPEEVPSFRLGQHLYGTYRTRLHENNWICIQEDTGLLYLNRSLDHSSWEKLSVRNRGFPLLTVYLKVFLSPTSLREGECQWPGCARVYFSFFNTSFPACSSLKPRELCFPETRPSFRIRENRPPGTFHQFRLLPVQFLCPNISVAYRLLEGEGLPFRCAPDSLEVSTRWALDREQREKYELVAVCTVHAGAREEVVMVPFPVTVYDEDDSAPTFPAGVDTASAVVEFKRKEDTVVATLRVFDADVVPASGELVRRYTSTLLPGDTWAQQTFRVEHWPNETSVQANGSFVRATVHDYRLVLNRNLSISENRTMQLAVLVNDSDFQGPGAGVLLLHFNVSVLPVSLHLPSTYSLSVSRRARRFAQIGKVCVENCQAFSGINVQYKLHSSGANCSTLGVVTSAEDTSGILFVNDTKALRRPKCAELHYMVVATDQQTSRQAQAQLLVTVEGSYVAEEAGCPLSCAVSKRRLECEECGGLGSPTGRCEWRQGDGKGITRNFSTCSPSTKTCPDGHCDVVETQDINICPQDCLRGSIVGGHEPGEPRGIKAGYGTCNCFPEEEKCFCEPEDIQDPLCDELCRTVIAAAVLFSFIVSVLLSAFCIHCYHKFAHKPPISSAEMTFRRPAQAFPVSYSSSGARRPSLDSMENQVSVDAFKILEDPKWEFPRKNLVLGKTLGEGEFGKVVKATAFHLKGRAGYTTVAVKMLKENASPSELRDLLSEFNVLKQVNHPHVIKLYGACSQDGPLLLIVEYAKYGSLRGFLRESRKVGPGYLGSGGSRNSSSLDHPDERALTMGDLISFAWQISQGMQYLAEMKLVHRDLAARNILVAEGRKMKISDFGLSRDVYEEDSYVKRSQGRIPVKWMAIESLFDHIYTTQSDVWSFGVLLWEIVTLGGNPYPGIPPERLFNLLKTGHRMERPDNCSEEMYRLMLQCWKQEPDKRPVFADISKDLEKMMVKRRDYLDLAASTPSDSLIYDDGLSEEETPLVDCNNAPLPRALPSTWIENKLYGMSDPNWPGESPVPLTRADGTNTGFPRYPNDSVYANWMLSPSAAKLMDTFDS
The assay can be described thus: RET phosphorylation by BT compounds, IP and Western blotting (FIG. 6B). In kind it is cell-based. The settings on record: 100 μM, 15 min; MG87 RET fibroblasts transfected with GFRα3. The method, then:
as §3

The subject of assay [5] is GFRα3/RET-expressing reporter cell line. The assay can be described thus: Reporter-gene luciferase activity assay, dose-response (FIG. 5). In kind it is cell-based, human. Particulars: GFRα3/RET cells; 1-50 μM, 24 h.
Description: Full-length flag-tagged rat Gfrα1 cDNA (Leppänen et al., 2004) subcloned into in pcDNA3 (Invitrogen). Full-length human GFRα1 cDNA (Sidorova et al., unpublished) subcloned in pcDNA6 (Invitrogen). Full-length human GFRα3 cDNA (Wang et al., 2006). Full-length human RET (long isoform) (Runeberg-Roos et al., 2007) in pCR3.1 (Invitrogen). The MAPK activation detection system (Baloh et al., 2000) and PathDetect Elk-1 (Stratagene) both of which include two plasmids. First one constitutively expresses MAPK pathway specific fusion transactivator, that consists of activation domain of Elk-1 and DNA-binding domain of the yeast GAL4 protein (Gal4-Elk1). The other plasmid, Gal4-Luc, carries luciferase gene under the control of a synthetic promoter containing the yeast GAL4 binding sequences.
as §2

SMILES strings stand for the structures.

T1 sequence (P56159 25-429 limits assumed, species assumed): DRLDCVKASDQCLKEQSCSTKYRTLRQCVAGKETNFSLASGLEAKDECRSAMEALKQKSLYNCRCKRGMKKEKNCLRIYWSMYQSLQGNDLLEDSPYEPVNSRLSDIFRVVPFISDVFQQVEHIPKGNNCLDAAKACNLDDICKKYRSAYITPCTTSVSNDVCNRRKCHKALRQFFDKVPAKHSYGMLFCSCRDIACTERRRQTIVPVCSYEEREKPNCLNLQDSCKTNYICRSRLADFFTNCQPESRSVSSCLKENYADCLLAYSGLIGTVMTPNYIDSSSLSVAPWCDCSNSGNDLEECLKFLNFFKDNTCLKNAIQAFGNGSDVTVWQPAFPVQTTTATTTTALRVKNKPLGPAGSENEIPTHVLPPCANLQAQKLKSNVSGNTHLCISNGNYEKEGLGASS
T1 sequence (P07949 29-1114, species assumed): as the sequence (P07949 29-1114) above

On to `CCN(CC)S(=O)(=O)c1ccc(OC)c(N2CCN(C(=O)c3cc(F)ccc3C(F)(F)F)CC2)c1` [BT13], for which the “induction of luciferase expression” value in assay [1] is given as “in a dose-dependent manner induce luciferase expression”; in assay [2] it was “No significant effect”; in assay [5], “in a dose-dependent manner induce luciferase expression”. Further, the “RET phosphorylation via GFRα1” value in assay [3] is on record as “strongly activated RET”. Moreover, the “RET phosphorylation via GFRα3” value in assay [4] was “strongly activated RET”.
As to `COc1ccc(S(=O)(=O)N2CCc3ccccc3C2)cc1N1CCN(C(=O)c2cc(F)ccc2C(F)(F)F)CC1` [BT16], the “induction of luciferase expression” value in assay [1] is “in a dose-dependent manner induce luciferase expression”; in assay [2] it was “No significant effect”; in assay [5], “in a dose-dependent manner induce luciferase expression”. Also, in assay [3], the “RET phosphorylation via GFRα1” value was “strongly activated RET”. Further, the “RET phosphorylation via GFRα3” value in assay [4] is given as “likely the weaker GFRα3/RET agonists”.
`COc1cc2c(cc1OC)CN(S(=O)(=O)c1ccc(OC)c(N3CCN(C(=O)c4cc(F)ccc4C(F)(F)F)CC3)c1)CC2` [BT18]: the “induction of luciferase expression” value in assay [1] is listed as “active”. In addition, the “RET phosphorylation via GFRα1” value in assay [3] is on record as “likely the weaker GFRα1/RET agonists”. For the same compound, the “RET phosphorylation via GFRα3” value in assay [4] was “likely the weaker GFRα3/RET agonists”.

The record behind these values is US8901129B2, “Methods of facilitating neural cell survival using GDNF family ligand (GFL) mimetics or RET signaling pathway activators” (GeneCode AS, priority 2009, dated 2014).
